What was measured:
[1] = target: Tyrosine-protein kinase JAK1 (Homo sapiens, UniProt P23458); experiment: Selectivity interaction (KinomeScan (DiscoverX)) EUB0001049a JAK1; conditions: at 1 µM
[2] = target: Cyclin-dependent kinase 4 (Homo sapiens, UniProt P11802); experiment: Selectivity interaction (KinomeScan (DiscoverX)) EUB0000229b CDK4; conditions: at 10 µM
[3] = target: T1, Dual specificity tyrosine-phosphorylation-regulated kinase 2 (Homo sapiens) (UniProt Q92630); experiment: Selectivity interaction (KinomeScan (DiscoverX)) EUB0001079a DYRK2; conditions: at 1 µM
T1 sequence (whole entry): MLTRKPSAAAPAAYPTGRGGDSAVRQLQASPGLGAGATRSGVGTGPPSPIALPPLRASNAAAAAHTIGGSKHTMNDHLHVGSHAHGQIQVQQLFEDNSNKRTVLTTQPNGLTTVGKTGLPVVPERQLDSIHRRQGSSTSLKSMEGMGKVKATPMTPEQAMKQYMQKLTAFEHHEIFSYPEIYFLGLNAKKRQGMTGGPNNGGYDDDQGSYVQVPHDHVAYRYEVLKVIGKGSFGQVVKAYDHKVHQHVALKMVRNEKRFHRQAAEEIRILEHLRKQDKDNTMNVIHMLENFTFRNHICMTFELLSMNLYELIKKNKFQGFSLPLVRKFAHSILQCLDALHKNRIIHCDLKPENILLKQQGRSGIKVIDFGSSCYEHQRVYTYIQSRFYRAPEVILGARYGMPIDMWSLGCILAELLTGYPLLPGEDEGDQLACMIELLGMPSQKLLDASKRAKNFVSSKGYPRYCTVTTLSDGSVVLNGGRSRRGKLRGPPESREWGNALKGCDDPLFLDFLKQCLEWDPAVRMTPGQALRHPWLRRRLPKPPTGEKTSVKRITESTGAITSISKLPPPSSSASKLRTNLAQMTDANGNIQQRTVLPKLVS

[4] = target: Bromodomain and WD repeat-containing protein 1 (Homo sapiens) (UniProt Q9NSI6); experiment: Selectivity interaction (Bromodomain panel (DSF asssay)) EUB0000270b BRWD1
Aurora kinase B = Aurora kinase B (Homo sapiens, UniProt Q96GD4); experiment: Selectivity interaction (ActivX KiNativ screen (kinase selectivity in THP-1 cell lysates)) EUB0000639a AURKB; assay type: subcellular; conditions: lysate, at 0.01 µM
[5] = target: T2, Phosphatidylinositol 4,5-bisphosphate 3-kinase catalytic subunit delta isoform (Homo sapiens) (UniProt O00329); experiment: Selectivity interaction (Kinase panel (Invitrogen)) EUB0000639a PIK3CD; conditions: at 200 nM
T2 sequence (whole entry): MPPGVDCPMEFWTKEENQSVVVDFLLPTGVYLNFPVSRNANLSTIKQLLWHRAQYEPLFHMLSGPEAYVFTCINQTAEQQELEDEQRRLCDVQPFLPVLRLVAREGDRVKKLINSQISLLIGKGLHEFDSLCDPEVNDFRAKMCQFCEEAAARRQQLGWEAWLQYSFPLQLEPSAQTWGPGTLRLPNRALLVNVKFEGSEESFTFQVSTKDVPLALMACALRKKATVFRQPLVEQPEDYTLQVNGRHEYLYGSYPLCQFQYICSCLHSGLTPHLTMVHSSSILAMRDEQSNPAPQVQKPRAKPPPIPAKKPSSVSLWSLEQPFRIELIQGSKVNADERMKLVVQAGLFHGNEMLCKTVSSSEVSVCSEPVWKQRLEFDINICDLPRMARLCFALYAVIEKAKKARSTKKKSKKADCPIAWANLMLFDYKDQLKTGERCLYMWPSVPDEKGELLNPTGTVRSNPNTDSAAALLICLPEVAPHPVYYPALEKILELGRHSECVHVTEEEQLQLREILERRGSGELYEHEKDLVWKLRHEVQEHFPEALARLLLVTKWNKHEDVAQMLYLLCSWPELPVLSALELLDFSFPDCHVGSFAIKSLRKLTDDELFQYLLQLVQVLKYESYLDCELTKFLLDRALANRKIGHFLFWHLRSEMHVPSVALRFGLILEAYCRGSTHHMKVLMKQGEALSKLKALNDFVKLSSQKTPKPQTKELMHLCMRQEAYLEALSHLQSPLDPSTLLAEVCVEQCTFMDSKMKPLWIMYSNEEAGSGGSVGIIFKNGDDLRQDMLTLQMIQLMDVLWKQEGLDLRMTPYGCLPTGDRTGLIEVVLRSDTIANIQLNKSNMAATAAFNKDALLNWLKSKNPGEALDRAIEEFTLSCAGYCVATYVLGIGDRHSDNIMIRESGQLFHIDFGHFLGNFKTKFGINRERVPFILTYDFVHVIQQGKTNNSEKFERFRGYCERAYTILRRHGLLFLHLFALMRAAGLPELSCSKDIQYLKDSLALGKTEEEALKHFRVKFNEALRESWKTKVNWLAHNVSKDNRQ

[6] = target: Mitogen-activated protein kinase 6 (Homo sapiens) (UniProt Q16659); experiment: Selectivity interaction (Ambit KINOMEscan and KiNATiv profiling in Jurkat cells) EUB0000090b MAPK6; assay type: cell-based; conditions: at 1 µM
[7] = Selectivity interaction (Ambit KINOMEscan and KiNATiv profiling in Jurkat cells) EUB0000090b PKNB; conditions: Selectivity number of off-targets 9; Selectivity number of targets 456; Source Knowledge https://www.nature.com/articles/nchembio.2166; at 1 µM
[8] = target: Glycogen synthase kinase-3 beta (Homo sapiens, UniProt P49841); experiment: Selectivity interaction (KinomeScan (DiscoverX)) EUB0001619a GSK3B; conditions: at 1 µM
[9] = target: Hepatocyte growth factor-like protein (Homo sapiens) (UniProt P26927); conditions: at 1 µM
[10] = target: Ribosomal protein S6 kinase alpha-2 (Homo sapiens) (UniProt Q15349); experiment: Selectivity interaction (KinomeScan (DiscoverX)) EUB0000695a RPS6KA2; conditions: at 100 nM
[11] = target: STE20/SPS1-related proline-alanine-rich protein kinase (Homo sapiens) (UniProt Q9UEW8); experiment: Selectivity interaction (LanthaScreen Eu Kinase Binding Assay) EUB0001632a STK39; conditions: at 10 µM

Mitogen-activated protein kinase 6 (Homo sapiens), sequence (Q16659 whole entry): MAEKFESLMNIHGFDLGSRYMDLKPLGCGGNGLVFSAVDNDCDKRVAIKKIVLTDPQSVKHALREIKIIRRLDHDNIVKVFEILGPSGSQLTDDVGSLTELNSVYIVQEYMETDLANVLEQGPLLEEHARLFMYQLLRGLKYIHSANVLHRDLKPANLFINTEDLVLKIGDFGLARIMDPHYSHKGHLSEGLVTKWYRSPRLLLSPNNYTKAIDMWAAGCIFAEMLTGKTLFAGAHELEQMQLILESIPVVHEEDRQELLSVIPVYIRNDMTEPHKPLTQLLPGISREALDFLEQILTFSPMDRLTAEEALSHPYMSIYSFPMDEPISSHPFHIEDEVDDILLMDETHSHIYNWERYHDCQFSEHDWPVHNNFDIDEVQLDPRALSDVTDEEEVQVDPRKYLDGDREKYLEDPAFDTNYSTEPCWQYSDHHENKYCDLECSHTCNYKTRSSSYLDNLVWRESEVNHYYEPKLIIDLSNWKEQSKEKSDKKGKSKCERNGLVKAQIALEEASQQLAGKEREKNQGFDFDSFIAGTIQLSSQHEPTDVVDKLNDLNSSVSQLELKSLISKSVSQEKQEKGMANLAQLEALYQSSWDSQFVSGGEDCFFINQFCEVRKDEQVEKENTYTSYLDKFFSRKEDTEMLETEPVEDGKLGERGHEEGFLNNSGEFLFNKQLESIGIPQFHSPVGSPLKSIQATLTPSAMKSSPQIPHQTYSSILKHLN
Bromodomain and WD repeat-containing protein 1 (Homo sapiens), sequence (Q9NSI6 whole entry): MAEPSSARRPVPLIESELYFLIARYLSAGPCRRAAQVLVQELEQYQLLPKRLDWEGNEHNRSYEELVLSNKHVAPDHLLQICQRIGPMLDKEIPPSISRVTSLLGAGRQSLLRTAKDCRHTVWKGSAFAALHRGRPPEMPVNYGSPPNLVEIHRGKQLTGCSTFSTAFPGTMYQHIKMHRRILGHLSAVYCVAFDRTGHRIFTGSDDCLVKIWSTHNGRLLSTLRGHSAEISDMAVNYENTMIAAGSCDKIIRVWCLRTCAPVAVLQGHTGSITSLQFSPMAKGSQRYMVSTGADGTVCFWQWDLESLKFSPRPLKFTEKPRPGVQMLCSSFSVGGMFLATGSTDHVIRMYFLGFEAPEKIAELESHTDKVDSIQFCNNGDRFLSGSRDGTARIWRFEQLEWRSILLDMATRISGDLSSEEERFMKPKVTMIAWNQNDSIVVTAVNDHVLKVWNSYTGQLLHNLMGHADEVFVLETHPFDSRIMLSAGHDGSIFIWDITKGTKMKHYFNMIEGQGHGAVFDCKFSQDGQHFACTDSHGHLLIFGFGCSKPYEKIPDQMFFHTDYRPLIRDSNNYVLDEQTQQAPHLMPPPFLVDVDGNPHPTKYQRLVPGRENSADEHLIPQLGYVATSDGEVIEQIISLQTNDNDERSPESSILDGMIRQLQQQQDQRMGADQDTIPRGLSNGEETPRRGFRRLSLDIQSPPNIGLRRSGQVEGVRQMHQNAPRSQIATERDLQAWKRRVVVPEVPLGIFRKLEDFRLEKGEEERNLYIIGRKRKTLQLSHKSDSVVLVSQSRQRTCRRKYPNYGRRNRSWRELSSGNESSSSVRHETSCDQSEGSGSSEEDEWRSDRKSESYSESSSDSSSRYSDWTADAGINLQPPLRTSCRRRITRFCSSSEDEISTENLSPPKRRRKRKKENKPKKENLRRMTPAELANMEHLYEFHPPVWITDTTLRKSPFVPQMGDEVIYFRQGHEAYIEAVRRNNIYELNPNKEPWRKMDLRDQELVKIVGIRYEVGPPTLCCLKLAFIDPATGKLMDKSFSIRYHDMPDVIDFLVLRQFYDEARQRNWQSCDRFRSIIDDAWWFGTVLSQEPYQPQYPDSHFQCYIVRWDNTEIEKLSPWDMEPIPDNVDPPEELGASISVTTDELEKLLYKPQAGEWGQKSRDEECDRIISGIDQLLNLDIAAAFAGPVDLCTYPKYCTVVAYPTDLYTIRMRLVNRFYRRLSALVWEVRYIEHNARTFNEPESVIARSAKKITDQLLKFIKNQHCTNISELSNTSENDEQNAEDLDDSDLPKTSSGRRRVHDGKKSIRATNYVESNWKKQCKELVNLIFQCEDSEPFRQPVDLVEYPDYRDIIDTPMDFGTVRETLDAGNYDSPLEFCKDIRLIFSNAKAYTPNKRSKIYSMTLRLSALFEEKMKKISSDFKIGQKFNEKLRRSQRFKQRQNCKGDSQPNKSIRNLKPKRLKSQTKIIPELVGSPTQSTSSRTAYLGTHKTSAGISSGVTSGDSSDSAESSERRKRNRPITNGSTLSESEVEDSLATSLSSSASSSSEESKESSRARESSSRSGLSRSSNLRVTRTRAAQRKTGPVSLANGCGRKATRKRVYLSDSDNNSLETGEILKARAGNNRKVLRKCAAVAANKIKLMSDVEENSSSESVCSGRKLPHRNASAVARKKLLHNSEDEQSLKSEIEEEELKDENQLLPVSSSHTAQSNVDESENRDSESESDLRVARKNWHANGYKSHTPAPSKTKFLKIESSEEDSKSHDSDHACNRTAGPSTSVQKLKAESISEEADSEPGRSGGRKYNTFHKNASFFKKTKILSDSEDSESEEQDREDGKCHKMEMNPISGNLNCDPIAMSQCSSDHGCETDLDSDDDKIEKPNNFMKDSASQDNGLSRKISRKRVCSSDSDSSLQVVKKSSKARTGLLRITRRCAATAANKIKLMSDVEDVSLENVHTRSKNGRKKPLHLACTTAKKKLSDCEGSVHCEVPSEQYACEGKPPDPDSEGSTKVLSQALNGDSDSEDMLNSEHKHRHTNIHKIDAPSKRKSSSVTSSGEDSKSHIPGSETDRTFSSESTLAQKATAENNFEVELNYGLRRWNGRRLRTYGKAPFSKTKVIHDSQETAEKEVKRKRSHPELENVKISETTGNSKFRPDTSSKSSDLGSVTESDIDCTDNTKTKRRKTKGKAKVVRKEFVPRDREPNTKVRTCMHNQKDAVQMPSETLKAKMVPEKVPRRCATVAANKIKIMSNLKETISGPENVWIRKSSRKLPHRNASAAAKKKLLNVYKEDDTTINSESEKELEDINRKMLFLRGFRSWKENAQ
Aurora kinase B, sequence (Q96GD4 whole entry, canonical isoform): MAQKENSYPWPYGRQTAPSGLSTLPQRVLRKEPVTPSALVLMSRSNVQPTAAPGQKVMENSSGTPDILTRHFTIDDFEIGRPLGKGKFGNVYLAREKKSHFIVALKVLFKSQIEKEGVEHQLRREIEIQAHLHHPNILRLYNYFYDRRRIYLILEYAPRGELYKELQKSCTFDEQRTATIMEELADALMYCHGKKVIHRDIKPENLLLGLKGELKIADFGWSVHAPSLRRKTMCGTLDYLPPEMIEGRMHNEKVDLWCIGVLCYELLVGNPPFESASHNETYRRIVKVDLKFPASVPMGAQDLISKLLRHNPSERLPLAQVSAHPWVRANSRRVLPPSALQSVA
Glycogen synthase kinase-3 beta, sequence (P49841 whole entry, looked up): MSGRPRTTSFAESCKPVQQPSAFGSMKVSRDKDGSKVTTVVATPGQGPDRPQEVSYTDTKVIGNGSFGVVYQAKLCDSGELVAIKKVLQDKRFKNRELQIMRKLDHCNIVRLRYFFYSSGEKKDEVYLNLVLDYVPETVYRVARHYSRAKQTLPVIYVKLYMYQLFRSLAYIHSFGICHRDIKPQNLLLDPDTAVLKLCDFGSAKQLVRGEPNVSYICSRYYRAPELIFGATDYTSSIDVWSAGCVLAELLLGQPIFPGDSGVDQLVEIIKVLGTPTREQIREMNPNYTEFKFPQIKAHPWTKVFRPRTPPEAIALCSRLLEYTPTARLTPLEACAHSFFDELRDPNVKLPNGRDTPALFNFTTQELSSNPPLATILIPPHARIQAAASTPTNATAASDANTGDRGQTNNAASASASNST
Ribosomal protein S6 kinase alpha-2 (Homo sapiens), sequence (Q15349 whole entry): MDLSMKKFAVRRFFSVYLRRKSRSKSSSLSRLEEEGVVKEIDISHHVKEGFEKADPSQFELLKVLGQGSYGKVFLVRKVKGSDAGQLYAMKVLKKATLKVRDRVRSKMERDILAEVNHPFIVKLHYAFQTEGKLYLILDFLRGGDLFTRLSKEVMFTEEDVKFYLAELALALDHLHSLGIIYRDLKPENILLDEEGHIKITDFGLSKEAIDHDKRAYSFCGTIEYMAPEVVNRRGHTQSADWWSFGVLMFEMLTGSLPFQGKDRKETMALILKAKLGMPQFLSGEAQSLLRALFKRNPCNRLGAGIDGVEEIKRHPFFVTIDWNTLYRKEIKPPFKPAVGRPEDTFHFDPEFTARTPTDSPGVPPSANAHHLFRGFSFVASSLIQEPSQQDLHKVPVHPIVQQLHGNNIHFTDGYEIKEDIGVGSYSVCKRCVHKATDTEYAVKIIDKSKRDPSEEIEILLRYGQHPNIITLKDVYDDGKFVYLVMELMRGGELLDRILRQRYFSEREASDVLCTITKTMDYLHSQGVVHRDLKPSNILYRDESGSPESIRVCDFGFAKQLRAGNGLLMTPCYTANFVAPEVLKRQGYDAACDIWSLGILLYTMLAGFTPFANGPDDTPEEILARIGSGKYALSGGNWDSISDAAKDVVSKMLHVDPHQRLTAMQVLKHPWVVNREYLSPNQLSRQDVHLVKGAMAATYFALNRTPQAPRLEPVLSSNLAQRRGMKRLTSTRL
Cyclin-dependent kinase 4, sequence (P11802 whole entry): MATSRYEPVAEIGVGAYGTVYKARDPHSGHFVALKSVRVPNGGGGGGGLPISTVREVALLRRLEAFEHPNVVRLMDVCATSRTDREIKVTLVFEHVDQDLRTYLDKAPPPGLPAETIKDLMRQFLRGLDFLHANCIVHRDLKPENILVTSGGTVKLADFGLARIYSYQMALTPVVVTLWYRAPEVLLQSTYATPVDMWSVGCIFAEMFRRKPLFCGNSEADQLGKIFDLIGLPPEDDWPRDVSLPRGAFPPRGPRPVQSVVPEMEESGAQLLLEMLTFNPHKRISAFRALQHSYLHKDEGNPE

## COc1cc(Nc2nc(C)cc(-c3cnn4nc(OC)ccc34)n2)cc(C(F)(F)F)c1
[1]
  % of control: 100%

## COc1cc(N(C)c2ccnc3ccc(C(F)(F)F)cc23)cc(OC)c1OC
[2]
  % binding: 100%

## Nc1cnc(N2CCc3cc(S(=O)(=O)Nc4c(F)cc(Cl)cc4F)cc(N4CCCC4=O)c32)nc1 [TP-020n]
[3]
  % of control: 89%

## Cc1cc(CN)cc(C)c1-c1ncn(C)c1-c1cncn1C
[4]
  dTM: -1.1 K

## CC[C@@H]1[C@H](F)C(=O)N[C@@H]1COc1nccc2cc(C(N)=O)c(OC)cc12 [ZIMLOVISERTIB]
Aurora kinase B
  % of inhibition: 4.9%
[5]
  % of inhibition: 1.5%

## CN(C)C/C=C/C(=O)Nc1ccc(C(=O)N2CCCC(Nc3ncc(Cl)c(-c4c[nH]c5ccccc45)n3)C2)cc1 (configuration not stated)
[6]
  % of control: 40%
[7]
  % of control: 38%

## N#Cc1cccc(-c2c[nH]c3ncnc(N4CCOCC4)c23)c1
[8]
  % of control: 94%

## Cc1ccc(-c2ccc3c(ccc4sc5c(c43)NC[C@@H](C)NC5=O)n2)cn1
[9]
  % of inhibition: 6%

## Cc1cc(F)c(C(=O)Nc2cccc(-c3nncn3C(C)C)n2)cc1-n1cnc(C2CC2)c1
[10]
  % of control: 73%

## Cn1cc(-n2cnc3c(NCc4nc5cc(Cl)c(Cl)cc5[nH]4)nc(N4CCOCC4)nc32)cn1
[11]
  % of inhibition: -29.3%

From ChEMBL document CHEMBL5465560, “Selectivity Literature for EUbOPEN Chemogenomic Library” (2024)
